Data as given in patent publication US20240109903A1, “SUBSTITUTED HETEROCYCLES FOR TREATING CANCER” (Northwestern University, priority 2022, published 2024).
Like-named read-outs stand apart in the source and are kept apart here.

Experiments:
[1] = test system: OVCAR-8; assay: NCI 60 five-dose screen OVCAR-8; format: cell-based; conditions: Homo sapiens; for CC50: read-out: LC50 (the source's name) (converted)
[2] = test system: MDA-MB-468; assay: NCI 60 five-dose screen MDA-MB-468; format: cell-based; conditions: Homo sapiens; for CC50: read-out: LC50 (the source's name) (converted)
[3] = test system: NCI-H23; assay: NCI 60 five-dose screen NCI-H23; format: cell-based; conditions: Homo sapiens; for CC50: read-out: LC50 (the source's name) (converted)
[4] = test system: RPMI-8226; assay: NCI 60 five-dose screen RPMI-8226; format: cell-based; conditions: Homo sapiens; for CC50: read-out: LC50 (the source's name)
[5] = test system: OVCAR-4; assay: NCI 60 five-dose screen OVCAR-4; format: cell-based; conditions: Homo sapiens; for CC50: read-out: LC50 (the source's name) (converted)
[6] = test system: SK-OV-3; assay: NCI 60 five-dose screen SK-OV-3; format: cell-based; conditions: Homo sapiens; for CC50: read-out: LC50 (the source's name) (converted)
[7] = test system: T-47D; assay: NCI 60 five-dose screen T-47D; format: cell-based; conditions: Homo sapiens, T47D; for CC50: read-out: LC50 (the source's name)
[8] = test system: NCI-H322M; assay: NCI 60 five-dose screen NCI-H322M; format: cell-based; conditions: Homo sapiens; for CC50: read-out: LC50 (the source's name) (converted)
[9] = test system: SF-295; assay: NCI 60 five-dose screen SF-295; format: cell-based; conditions: Homo sapiens; for CC50: read-out: LC50 (the source's name) (converted)
[10] = test system: SF-268; assay: NCI 60 five-dose screen SF-268; format: cell-based; conditions: Homo sapiens; for CC50: read-out: LC50 (the source's name) (converted)
[11] = test system: MV-4-11 acute myeloid leukemia cells; assay: CellTiter-Glo 2.0 cell viability, MV-4-11; format: cell-based; conditions: Homo sapiens
Method: 2019 October; 94(4): 1813-1823.
Cell viability was assessed using the CellTiter-Glo 2.0 assay from Promega, which yields a signal proportional to the amount of ATP present in a cell population. Compounds were first dispensed into empty 96-well flat-bottom tissue culture-treated plates (Corning) using an Echo550. MV4-1 cells were diluted to a density of 0.1 million cells per ml, pipetted onto the compounds at a density of 1,000 cells per well for U937 and 3,000 cells per well for MV4-11, mixed, and incubated for 3 days at 37° C. with 5% C02. After incubating, 5 μl of cells from each well were added to 5 μl of CellTiter-Glo 2.0 reagent in a384-well white ProxiPlate (PerkinElmer), incubated for 20 minutes at ambient temperature, and luminescence was analyzed on an EnSpire plate reader. Graphing and regression analysis was performed in Graphpad Prism.

[12] = test system: SR; assay: NCI 60 five-dose screen SR; format: cell-based, human; conditions: for GI50 / IC50 / CC50: Homo sapiens; for CC50: read-out: LC50 (the source's name)
[13] = MV4-11, 72 h, MV-4-11 cells, 3 days, CellTiter-Glo 2.0, read-out: IC50 (uM) [Cell Type: MV-4-11]
[14] = MV4-11, bound stated in text, read-out: IC50 against MV-4-11 acute myeloid leukemia cells

`FC(F)(F)c1cc2c(Cl)ncnc2n1CCC1CCOCC1` [NUCC-0226674] was tested, and the GI50 ([1]; five-dose) was 2.45 µM, the IC50 ([1]; five-dose) was 3.63 µM and the IC (TGI) ([1]; five-dose) was 7.41 µM. It also gave a CC50 ([1]; five-dose) of 63.1 µM, a GI50 ([2]; five-dose) of 1.66 µM and an IC50 ([2]; five-dose) of 3.8 µM. For the same compound, the IC (TGI) ([2]; five-dose) was 3.47 µM, the CC50 ([2]; five-dose) was 7.24 µM and the GI50 ([3]; five-dose) was 2.57 µM. It also gave an IC50 ([3]; five-dose) of 4.9 µM, an IC (TGI) ([3]; five-dose) of 10 µM and a CC50 ([3]; five-dose) of 34.7 µM. The GI50 ([4]; five-dose) was 14.5 µM, the IC50 ([4]; five-dose) was 25.7 µM and the IC (TGI) ([4]; five-dose) was 41.7 µM. It also gave a CC50 ([4]; five-dose) of no less than 100 µM, a GI50 ([5]; five-dose) of 18.6 µM and an IC50 ([5]; five-dose) of 38 µM. For the same compound, the IC (TGI) ([5]; five-dose) was 50.1 µM, the CC50 ([5]; five-dose) was no less than 100 µM and the GI50 ([6]; five-dose) was 17.4 µM. The IC50 ([6]; five-dose) was 33.1 µM, the IC (TGI) ([6]; five-dose) was 33.1 µM and the CC50 ([6]; five-dose) was 64.6 µM. The GI50 ([7]; five-dose) was 20.4 µM, the IC50 ([7]; five-dose) was 47.9 µM and the IC (TGI) ([7]; five-dose) was 60.3 µM. It also gave a CC50 ([7]; five-dose) of no less than 100 µM, a GI50 ([8]; five-dose) of 3.16 µM and an IC50 ([8]; five-dose) of 8.32 µM. The IC (TGI) ([8]; five-dose) was 12.6 µM, the CC50 ([8]; five-dose) was 35.5 µM and the GI50 ([9]; five-dose) was 13.8 µM. For the same compound, the IC50 ([9]; five-dose) was 25.1 µM, the IC (TGI) ([9]; five-dose) was 27.5 µM and the CC50 ([9]; five-dose) was 56.2 µM. For the same compound, the GI50 ([10]; five-dose) was 2.45 µM, the IC50 ([10]; five-dose) was 4.57 µM and the IC (TGI) ([10]; five-dose) was 7.24 µM. It also gave a CC50 ([10]; five-dose) of 44.7 µM, an IC50 [11, 13] of 1.29 µM and an IC50 [11, 14] of less than 2 µM. For the same compound, the GI50 ([12]; five-dose) was 2.04 µM, the IC50 ([12]; five-dose) was 3.72 µM and the CC50 ([12]; five-dose) was no less than 100 µM. For the same compound, the TGI ([12]; five-dose) was 5.27 −log[M].
Compound `FC(F)(F)c1cc2c(Cl)ncnc2n1CCN1CCOCC1` [NUCC-0226680] has a GI50 ([1]; five-dose) of 8.51 µM, an IC50 ([1]; five-dose) of 13.8 µM and an IC (TGI) ([1]; five-dose) of 29.5 µM. The CC50 ([1]; five-dose) was 93.3 µM, the GI50 ([2]; five-dose) was 2.75 µM and the IC50 ([2]; five-dose) was 15.8 µM. For the same compound, the IC (TGI) ([2]; five-dose) was 10.5 µM, the CC50 ([2]; five-dose) was 42.7 µM and the GI50 ([3]; five-dose) was 17.8 µM. For the same compound, the IC50 ([3]; five-dose) was 37.2 µM, the IC (TGI) ([3]; five-dose) was 74.1 µM and the CC50 ([3]; five-dose) was no less than 100 µM. For the same compound, the GI50 ([4]; five-dose) was 31.6 µM, the IC50 ([4]; five-dose) was 46.8 µM and the IC (TGI) ([4]; five-dose) was 100 µM. The CC50 ([4]; five-dose) was no less than 100 µM, the GI50 ([5]; five-dose) was 33.1 µM and the IC50 ([5]; five-dose) was 100 µM. For the same compound, the IC (TGI) ([5]; five-dose) was 100 µM, the CC50 ([5]; five-dose) was no less than 100 µM and the GI50 ([6]; five-dose) was 100 µM. It also gave an IC50 ([6]; five-dose) of 100 µM, an IC (TGI) ([6]; five-dose) of 100 µM and a CC50 ([6]; five-dose) of no less than 100 µM. It also gave a GI50 ([7]; five-dose) of 38.9 µM, an IC50 ([7]; five-dose) of 100 µM and an IC (TGI) ([7]; five-dose) of 100 µM. The CC50 ([7]; five-dose) was no less than 100 µM, the GI50 ([8]; five-dose) was 15.8 µM and the IC50 ([8]; five-dose) was 41.7 µM. The IC (TGI) ([8]; five-dose) was 53.7 µM, the CC50 ([8]; five-dose) was no less than 100 µM and the GI50 ([9]; five-dose) was 24.5 µM. For the same compound, the IC50 ([9]; five-dose) was 45.7 µM, the IC (TGI) ([9]; five-dose) was 100 µM and the CC50 ([9]; five-dose) was no less than 100 µM. It also gave a GI50 ([10]; five-dose) of 14.8 µM, an IC50 ([10]; five-dose) of 28.2 µM and an IC (TGI) ([10]; five-dose) of 33.9 µM. For the same compound, the CC50 ([10]; five-dose) was 77.6 µM, the IC50 [11, 13] was 0.679 µM and the IC50 [11, 14] was less than 2 µM. It also gave a GI50 ([12]; five-dose) of 2.88 µM, an IC50 ([12]; five-dose) of 4.37 µM and a CC50 ([12]; five-dose) of no less than 100 µM. For the same compound, the TGI ([12]; five-dose) was 4.9 −log[M].
Work on `COc1cc(Cn2c(C(F)(F)F)cc3c(Cl)ncnc32)ccn1` [NUCC-0226694] yielded a GI50 [1] of 11.5 µM, an IC50 [1] of 19.1 µM and an IC (TGI) [1] of 26.3 µM. The CC50 [1] was 61.7 µM, the GI50 [2] was 1.78 µM and the IC50 [2] was 3.98 µM. For the same compound, the IC (TGI) [2] was 3.8 µM, the CC50 [2] was 7.94 µM and the GI50 [3] was 2.19 µM. For the same compound, the IC50 [3] was 3.98 µM, the IC (TGI) [3] was 4.9 µM and the CC50 [3] was 13.5 µM. It also gave a GI50 [4] of 15.5 µM, an IC50 [4] of 26.3 µM and an IC (TGI) [4] of 79.4 µM. The CC50 [4] was no less than 100 µM, the GI50 [5] was 12 µM and the IC50 [5] was 22.9 µM. It also gave an IC (TGI) [5] of 26.9 µM, a CC50 [5] of 58.9 µM and a GI50 [6] of 17 µM. The IC50 [6] was 32.4 µM, the IC (TGI) [6] was 32.4 µM and the CC50 [6] was 61.7 µM. For the same compound, the GI50 [7] was 13.5 µM, the IC50 [7] was 38 µM and the IC (TGI) [7] was 61.7 µM. The CC50 [7] was no less than 100 µM, the GI50 [8] was 1.7 µM and the IC50 [8] was 3.16 µM. For the same compound, the IC (TGI) [8] was 3.31 µM, the CC50 [8] was 6.31 µM and the GI50 [9] was 16.6 µM. For the same compound, the IC50 [9] was 30.2 µM, the IC (TGI) [9] was 32.4 µM and the CC50 [9] was 63.1 µM. For the same compound, the GI50 [10] was 2.45 µM, the IC50 [10] was 4.57 µM and the IC (TGI) [10] was 9.33 µM. For the same compound, the CC50 [10] was 41.7 µM, the IC50 [11, 13] was 0.999 µM and the IC50 [11, 14] was less than 2 µM. The TGI [12] was 4 −log[M], the GI50 [12] was 3.63 µM and the IC50 [12] was 4.79 µM. The CC50 [12] was no less than 100 µM.
